Source: patent publication US20130158024A1, “TRICYCLIC NECROSTATIN COMPOUNDS” (priority 2005, published 2013)
“Also recorded” adds a separate entry of the source.

Key:
[1] = tested on: Primary mouse CD4+ and CD8+ T cells; assay: Activation-induced cell death (AICD) of primary CD4+ and CD8+ T cells; type: cell-based
Description: Cell viability was assessed using Sytox Green (Molecular Probes) (CD8) or propidium iodide exclusion (CD4) assays in FIG. 17A or ATP assay in FIG. 17B. Numbers represent the percentages of live cells normalized to the corresponding compound treated controls lacking αCD3.

[2] = tested on: RAW264.7 cells; assay: LPS/zVAD.fmk-induced CICD of RAW264.7 macrophage cells, ATP assay; type: cell-based, mouse; details: 10 ng/ml LPS, 50 or 100 μM zVAD.fmk, 30 μM Nec-1, 24 hours
Description: Cell viability was determined 24 hours later using an ATP assay. Values represent the percentages of live cells normalized to the control DMSO-treated cells.

[3] = tested on: RIP kinase-induced necroptosis in FADD-deficient Jurkat cells; assay: Necroptosis induced by dimerized RIP kinase in FADD-deficient Jurkat cells, FACS; type: cell-based, human; details: dimerizer AP1510, zVAD.fmk, 48 hours
Description: Percentage of PI-negative, GFP-positive cells (“Viability, %”) was determined by FACS. Numbers represent viability normalized to that of the compound-treated cells in the absence of dimerizer. Error bars represent standard deviations.

[4] = tested on: primary cortical neurons; assay: Oxygen-glucose deprivation (OGD) induced death of primary cortical neurons, MAP2 cytoblot; type: cell-based; details: OGD 90 minutes, 24 hours recovery; 30 μM
Description: Cells were allowed to recover in the presence of the compounds (except for the CNQX/MK801) for 24 hours, and specific neuronal viability was determined using MAP2 cytoblot. Values represent the percentages of live cells normalized to the compound treated cells, which were maintained in glucose-containing, non-deoxygenated media. **—P<0.02. […] Cells were allowed to recover in the presence of the compounds for 24 hours, and specific neuronal viability was determined using MAP2 cytoblot. Values represent the percentages of live cells normalized to the compound treated cells, which were maintained in glucose-containing, non-deoxygenated media. **—P<0.04.

[5] = tested on: Rat hippocampal neurons; assay: Amyloid-beta toxicity in rat hippocampal neurons, ATP assay; type: cell-based; details: Aβ25-35, 48 or 72 hours
Description: Viability was determined using an ATP assay. Similar results were also obtained using Aβ1-42.

[6] = tested on: healthy cells; assay: Effect of compound alone on physiology of healthy cells (ATP, morphology, cell cycle, mRNA, ROS); type: cell-based
Description: Results of the forward and side scatter FACS analysis are shown. In addition, percentage of PI negative viable cells (±SD value) was determined in each sample. […] Numbers of PI negative viable cells (±SD value) in each sample are shown. […] FADD-deficient Jurkat cells were treated as described in FIG. 31A and cell cycle profiles were analyzed by PI DNA content FACS analysis. […] Cell viability was determined using ATP assay. Numbers represent viability normalized to that of the corresponding DMSO-treated cells. Error bars indicate standard deviation values. […] Cells were fixed, embedded and analyzed using electron microscopy. Representative images are shown. […] Cells were stained with dyhydroethydium (Molecular Probes) and analyzed by FACS. Percentages (±SD value) of cells with increased ROS levels are shown. […] Red dots are internal reference controls.
Cells were fixed and stained with anti-giantin (Golgi, green)/anti-KDEL (ER, red) antibodies (FIG. 32A), anti-β-tubulin (tubulin, green)/TO-PRO-3 dye (nuclei, blue)/phalloidin-TRITC (actin, red) (FIG. 32B) and anti-cytochrome c (mitochondria, red)/TO-PRO-3 (nuclei, blue) (FIG. 32C). […]
After the appropriate treatment, we washed Jurkat cells once, resuspended them in PBS, and fixed the cells by adding four volumes of ice cold 100% ethanol. […] We analyzed the data using ModFit software (Verity Software House).

[7] = tested on: BALB/c 3T3 cells; assay: CICD of BALB/c 3T3 cells induced by TNFα/zVAD.fmk; type: cell-based, mouse
Description: Cell viability in this and subsequent panels was determined by ATP-based viability assay. Numbers represent percentages of the live cells normalized to those in the untreated control wells. Throughout, error bars represent standard deviations. […] Cells were treated with TNFα (E, F, H), zVAD.fmk (E, F), or CHX (F) for 16 (F) or 24 (E, H) hours. Numbers represent viability normalized to that of the compound-treated cells in the absence of TNFα.
The cells (5×10^5 cells/ml) were exposed to zVAD-fmk (100 μM) and human TNFα (40 ng/ml) for 72 hours. Induction of necrosis was assayed by measuring the cellular ATP levels in response to TNFα (Crouch et al., supra, Storer et al., supra, and Cree et al., supra).

[8] = biological target: T1, RIP2 (Homo sapiens, UniProt O43353); assay: In vitro kinase assay: autophosphorylation of RIP2; type: biochemical; details: RIP2-Myc from transfected 293T cells
T1 construct: expressed in transfected cells; host or cells: 293T
Text: 293T cells were transfected with RIP-FLAG or RIP2-Myc vectors. […] Major bands corresponding to phosphorylated RIP, RIP2, asterisks, and IgG are shown.

T1 sequence (O43353 whole entry, species assumed): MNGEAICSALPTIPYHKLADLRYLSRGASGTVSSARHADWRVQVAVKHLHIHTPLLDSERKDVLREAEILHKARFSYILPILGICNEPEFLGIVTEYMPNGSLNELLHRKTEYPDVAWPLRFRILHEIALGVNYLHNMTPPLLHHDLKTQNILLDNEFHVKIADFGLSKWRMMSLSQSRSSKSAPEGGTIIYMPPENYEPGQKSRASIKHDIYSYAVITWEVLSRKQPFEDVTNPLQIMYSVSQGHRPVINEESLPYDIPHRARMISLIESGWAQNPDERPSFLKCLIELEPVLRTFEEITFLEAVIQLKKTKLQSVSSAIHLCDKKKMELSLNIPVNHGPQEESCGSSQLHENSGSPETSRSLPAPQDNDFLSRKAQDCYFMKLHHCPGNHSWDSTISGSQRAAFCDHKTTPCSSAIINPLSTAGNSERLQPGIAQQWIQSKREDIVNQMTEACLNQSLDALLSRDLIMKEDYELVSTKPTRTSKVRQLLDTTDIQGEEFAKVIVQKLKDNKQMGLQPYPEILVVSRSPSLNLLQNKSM

methylthiohydantoin-tryptophane [Nec-1]
effect on AICD together with zVAD.fmk, in words ([1]; 100 μM zVAD.fmk and 30 μM Nec-1, 48 hours): inhibition of AICD by Nec-1; also recorded: together efficiently abrogated cell death | effect on AICD, compound alone, in words ([1]; re-activated CD4+ cells): displayed very little effect on the viability of re-activated T cells in the absence of zVAD.fmk | protection from LPS/zVAD.fmk toxicity, in words [2]: protects from CICD induced by LPS in macrophage cells; also recorded: efficiently inhibited LPS-mediated sensitization of RAW264.7 cells to dose-dependent toxicity of zVAD.fmk | inhibition of RIP kinase-induced necroptosis, in words [3]: inhibits RIP kinase-induced necroptosis; also recorded: inhibited by Nec-1 | protection from OGD-induced neuronal death, in words [4]: protects primary cortical neurons from oxygen-glucose deprivation induced cell death; also recorded: attenuated OGD-induced death of cortical neurons | attenuation of amyloid-beta toxicity in hippocampal neurons, in words [5]: protection by Nec-1 from amyloid-beta toxicity; also recorded: attenuation of the aggregated amyloid-beta peptide (Aβ) toxicity in primary rat hippocampal neurons | general effect in healthy cells, in words [6]: does not significantly affect gene expression in Jurkat cells; also recorded: had no general effect in healthy cells | inhibition of CICD in 3T3 cells, in words [7]: inhibited all published examples of necrotic cell death induced by DR activation in the presence of caspase inhibitors | effect on RIP2 autophosphorylation, in words [8]: lack of a Nec-1 effect on RIP2 autophosphorylation; also recorded: had no effect on RIP2 autophosphorylation
